According to the supplement of paper PMC11061612:

Tests used:
Assay in all cases: combination Emax (second highest fraction inhibited in the dose matrix, 72 h); higher = more inhibition; extreme values may be limits of the assay
ES6 (Ewing's Sarcoma) = system: ES6 (Ewing's Sarcoma)
Summary of the method: (§1)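 Cell lines grown in DMEM/F12 or RPMI with 10% FBS were plated in 1536-well plates and held 24 hours at 37°C, 5% CO2 before 72 hours of exposure to two-drug dose matrices, with DMSO typically at 0.2%. CellTiter-Glo 2.0 luminescence gave viability, which was converted to inhibition. Vehicle wells were set to 0 and blank wells to 1. Combination Emax is the second-highest inhibition in the matrix, and Bliss excess is the observed combination effect minus the expected EA + EB − EA·EB, where EA and EB are the single-agent effects.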

[1] = system: KP-4 (Pancreatic Carcinoma)
Summary of the method: as §1

[2] = system: MS-1 (Small Cell Lung Carcinoma)
Summary of the method: as §1

[3] = system: CPC-N (Small Cell Lung Carcinoma)
Summary of the method: as §1

[4] = system: MDA-MB-415 (Breast Carcinoma)
Summary of the method: as §1

[5] = system: BxPC-3 (Pancreatic Carcinoma)
Summary of the method: as §1

[6] = system: RCC-JW (Kidney Carcinoma)
Summary of the method: as §1

UACC-257 (Melanoma) = system: UACC-257 (Melanoma)
Summary of the method: as §1

NB1 (Neuroblastoma) = system: NB1 (Neuroblastoma)
Summary of the method: as §1

WM35 (Melanoma) = system: WM35 (Melanoma)
Summary of the method: as §1

[7] = system: NCI-H1963 (Small Cell Lung Carcinoma)
Summary of the method: as §1

AM-38 (Glioblastoma) = system: AM-38 (Glioblastoma)
Summary of the method: as §1

[8] = system: CL-11 (Colorectal Carcinoma)
Summary of the method: as §1

[9] = system: SNU-C2B (Colorectal Carcinoma)
Summary of the method: as §1

[10] = system: C-33-A (Cervical Carcinoma)
Summary of the method: as §1

[11] = system: SCC-4 (Oral Cavity Carcinoma)
Summary of the method: as §1

NCI-H2373 (Mesothelioma) = system: NCI-H2373 (Mesothelioma)
Summary of the method: as §1

[12] = system: OVCAR-3 (Ovarian Carcinoma)
Summary of the method: as §1

[13] = system: SK-CO-1 (Colorectal Carcinoma)
Summary of the method: as §1

[14] = system: NMC-G1 (Low Grade Glioma)
Summary of the method: as §1

Row | Structure (SMILES) | combination Emax (ES6 (Ewing's Sarcoma)) | combination Emax [1] | combination Emax [2] | combination Emax [3] | combination Emax [4] | combination Emax [5] | combination Emax [6] | combination Emax (UACC-257 (Melanoma)) | combination Emax (NB1 (Neuroblastoma)) | combination Emax (WM35 (Melanoma)) | combination Emax [7] | combination Emax (AM-38 (Glioblastoma)) | combination Emax [8] | combination Emax [9] | combination Emax [10] | combination Emax [11] | combination Emax (NCI-H2373 (Mesothelioma)) | combination Emax [12] | combination Emax [13] | combination Emax [14]
1 | Cc1c2c(nn1C)CSCc1cc(n(C)n1)CSc1cc(c3ccccc3c1)OCCCc1c(C(=O)O)n(C)c3c-2c(Cl)ccc13 [AZD5991] + C[C@@H](Nc1cc(F)cc(F)c1)c1cc(C(=O)N(C)C)cc2c(=O)cc(N3CCOCC3)oc12 [AZD8186] (first compound max 1 µM, 7x7, partner max 3 µM) | 0.354 | 0.206 | 0.48 | 0.294 | 0.931 | 0.206 | 0.461 | 0.28 | 0.26 | 0.307 | 0.437 | 0.436 | 0.155 | 0.177 | 0.224 | 0.598 | 0.287 | 0.439 | 0.283 | 0.224
2 | Cc1c2c(nn1C)CSCc1cc(n(C)n1)CSc1cc(c3ccccc3c1)OCCCc1c(C(=O)O)n(C)c3c-2c(Cl)ccc13 [AZD5991] + CCN(CCO)CCCOc1ccc2c(Nc3cc(CC(=O)Nc4cccc(F)c4)[nH]n3)ncnc2c1 [AZD2811] (first compound max 1 µM, 7x7, partner max 1 µM) | 0.29 | 0.667 | 0.48 | 0.835 | 0.56 | 0.269 | 0.251 | 0.322 | 0.694 | 0.243 | 0.842 | 0.32 | – | 0.17 | 0.275 | 0.663 | 0.267 | 0.378 | 0.73 | 0.305
3 | C=CCn1c(=O)c2cnc(Nc3ccc(N4CCN(C)CC4)cc3)nc2n1-c1cccc(C(C)(C)O)n1 [AZD1775] + C[C@@H]1COCCN1C2=NC(=NC(=C2)C3(CC3)[S@](=N)(=O)C)C4=C5C=CNC5=NC=C4 [AZD6738] (first compound max 1 µM, partner max 10 µM) | 0.652 | – | 0.983 | 0.999 | 0.595 | 0.624 | 0.725 | 0.344 | 0.944 | 0.659 | 1 | 0.818 | 0.774 | 0.726 | 0.978 | 0.763 | 0.608 | 0.74 | 0.738 | 0.451
4 | CCc1c2c(nc3ccc(O)cc13)-c1cc3c(c(=O)n1C2)COC(=O)[C@]3(O)CC [SN-38] + O=C(c1cc(Cc2n[nH]c(=O)c3ccccc23)ccc1F)N1CCN(C(=O)C2CC2)CC1 [Olaparib] (first compound max 0.3 µM, 7x7, partner max 10 µM) | 0.618 | 0.817 | 0.724 | 0.392 | 0.321 | 0.59 | 0.616 | 0.343 | – | 0.448 | 0.854 | 0.882 | 0.776 | 0.478 | 0.747 | 0.847 | 0.801 | 0.687 | 0.798 | 0.246
5 | Cc1nc(Nc2ncc(C(=O)Nc3c(C)cccc3Cl)s2)cc(N2CCN(CCO)CC2)n1 [Dasatinib] + CC(=O)Nc1cccc(-n2c(=O)n(C3CC3)c(=O)c3c(Nc4ccc(I)cc4F)n(C)c(=O)c(C)c32)c1 [Trametinib] (first compound max 2 µM, 7x7, partner max 1 µM) | 0.439 | 0.735 | 0.125 | 0.0279 | 0.385 | 0.868 | 0.859 | 0.644 | 0.139 | 0.837 | 0.38 | 0.713 | 0.961 | 0.66 | 0.642 | 0.712 | 0.391 | 0.494 | 0.994 | –
6 | COc1nnc2ccc(N3CCC(c4ccc(OCCN5CCN(C)C(=O)[C@H]5C)cc4)CC3)nn12 [AZD5153] + CC1(C)CCC(CN2CCN(c3ccc(C(=O)NS(=O)(=O)c4ccc(NCC5CCOCC5)c([N+](=O)[O-])c4)c(Oc4cnc5[nH]ccc5c4)c3)CC2)=C(c2ccc(Cl)cc2)C1 [Venetoclax] (first compound max 1 µM, 7x7, partner max 1 µM) | 0.292 | 0.526 | 0.906 | 0.539 | 0.409 | 0.473 | 0.3 | 0.305 | 0.232 | 0.556 | 0.988 | 0.232 | 0.677 | 0.545 | 0.379 | 0.389 | 0.39 | 0.522 | 0.321 | –
